The values that follow come from US10653732B2, “Composition for stimulating insulin secretion from cells and use thereof” (KOREA INSTITUTE OF SCIENCE AND TECHNOLOGY, priority 2017, dated 2020).

Data set [1] has as its system INS-1 cells. Kind of data set: Measurement of cytotoxicity against INS-1 cells (CCK-8 cell viability). As to conditions: for Cell viability (%): 24 hours, INS-1; for cytotoxicity / toxicity in words: INS-1 cells, concentrations of Table 1. The data set is classed as cell-based, rat. The protocol:
A cell line INS-1 (Biohermes, Shanghai, China) is a rat insulinoma, and has ability to secrete insulin.
The concentration of the single compound was 1.0 μM, 2.5 μM, and 5.0 μM.
In Table 1, cell viability was calculated by the following equation:
Cell viability (%)=NB×100, wherein A represents absorbance of a non-sample added group and B represents absorbance of a sample-added group.

Data set [2] has as its system INS-1 cells. Kind of data set: Effect on insulin secretion of INS-1 cells (stimulation index, rat insulin RIA). The data set is classed as cell-based. As to conditions: for Stimulation index (SI): 16.7 mM / […] glucose; for insulin secretion of INS-1 cells in words: concentrations of Table 2. The protocol:
Thereafter, the cells were washed twice with 2 ml of Krebs-Ringer buffer which was prepared by mixing 114 mM sodium chloride (NaCl), 4.4 mM potassium chloride (KCl), 1 mM magnesium sulfate (MgSO4), 1.28 mM calcium chloride (CaCl2), 29.5 mM sodium bicarbonate (NaHCO3), 10 mM Hepes (Gibco BRL Life Technologies), and 0.1% bovine serum albumin (BSA) and adjusting a hydrogen ion concentration at pH 7.4.
The concentration of the single compound was 1 μM, 2.5 μM, and 5 μM.
0.2 mL of Krebs-Ringer buffer containing […] glucose was added to each well, and incubated for 1 hour. Thereafter, centrifugation was performed at 4° C. for 10 minutes at 12,000 rpm, and a supernatant was taken and quantity of insulin was measured by using a Rat insulin RIA kit (Gentaur Molecular Products, Belgium). Stimulation index (SI) was calculated by dividing a value measured at a high concentration of glucose, i.e., quantity of insulin secreted by stimulation of 16.7 mM glucose by a value measured at a low concentration of glucose, i.e., quantity of insulin secreted by stimulation of 3.3 mM glucose. As a positive control group, gliclazide was used at a concentration of 2.5 μM, 5.0 μM, 10 μM, or 20 μM.

Data set [3] relates to INS-1 cells. In words: Protecting effect on pancreatic toxicity (streptozotocin-treated INS-1 cells, CCK-8). Conditions: for Cell viability (%): rat, 24 h. As to the method: The cell line INS-1 (Biohermes, Shanghai, China) was used to evaluate a protecting effect on pancreatic toxicity as follows.
INS-1 cells were cultured in RPMI1640 medium (Cellgro, Manassas, USA) supplemented with 10% fetal bovine serum (FBS), 100 unit/mL of penicillin G, 100 μg/mL of streptomycin, 10 mM Hepes, 2 mM L-glutamine, 1 mM sodium pyruvate, and 0.05 mM 2-merchapto ethanol in an incubator maintained at 37° C. and 95% air/5% carbon dioxide. Among the above-mentioned ingredients, the reagents of which manufacturers were not mentioned were purchased from Gibco BRL, Life Technologies.
The cultured INS-1 cells were dispensed at a density of 1×10^4 per well in 100 μL of the same medium in a 96-well plate, and cultured for 24 hours under the same conditions to stabilize the cells. […] Then, 10 μL (final concentration of 50 μM) of 500 μM streptozotocin in the same medium was added and cultured for 24 hours. Then, 10 μL of CCK-8 (Dojindo Laboratories, Japan) reagent was added to each well, and cultured at 37° C. 1 hour later, absorbance at 450 nm was measured by using a BIO-TEK (Winooski, Vt., USA) microplate reader to measure cell viability. The predetermined concentrations are as follows: concentrations of the extract and the fractions were 0 μg/mL, 5 μg/mL, 10 μg/mL, 25 μg/mL, 50 μg/mL, and 100 μg/mL. The concentration of the single compound was 0 μM, 5 μM, 10 μM, 25 μM, 50 μM, and 100 μM.

Data set [4] relates to INS-1 cells. In words: Image-based cell analysis of apoptosis (Annexin V/PI) in streptozotocin-treated INS-1 cells. Set-up: species or system rat. Conditions: 50 μM streptozotocin; for green fluorescent (apoptotic) cells, microscopic image FIG. 8A: 10 μM or more; for Apoptosis (%): 10 μM, 24 hours, annexin V-positive cells; for apoptosis by streptozotocin in words, FIG. 8B: INS-1 cells. As to the method: Thereafter, hypoxylonol-C and BNT at a concentration of 10 μM were added to 2.7 mL of the same medium and further cultured for 2 hours. […] Then, cells were collected by using trypsin, and washed with PBS once. The cells were suspended in 100 μL of Annexin binding buffer (composition: 100 mM HEPES, 140 mM NaCl, 25 mM CaCl2, pH 7.4) at a density of 5×10^5 to 5×10^6 cells/mL, and then mixed with 5 μL of Annexin V Alexa Fluor 488, and fixed and stained at room temperature for 20 minutes in the dark room. The cell suspension was centrifuged to discard the supernatant. Precipitated cell pellets were re-suspended in 100 μL of Annexin binding buffer. 1 μL of propidium was added to the cell suspension and mixed well to fix and stain the cells at room temperature for 1 minute to 5 minutes in the dark room. Analysis of the stained cells was performed by using a Tali Image-based cytometer and TaliPCApp (version 1.0).
Cells were sorted into living cells (annexin V-negative/PI-negative), early apoptotic cells (annexin V-positive/PI-negative), and late apoptotic cells or necrotic cells (annexin V-positive/PI-positive), and total apoptotic cells was expressed as a percentage of annexin V-positive/PI-negative or positive cells.

The conditions of data set [5]: Fukai et al., J. Nat. Prod. 2014, 77, 1065-1068; cited from earlier work.
Setting [6] is: 1.0 (μg/mL; μM for single compound).
The mark [7] stands for this setting: 2.5 (μg/mL; μM for single compound).
[8] abbreviates: 5.0 (μg/mL; μM for single compound).
[9] abbreviates: 1.0 (head μg/ml; b127 μM for single compound).
[10] abbreviates: 2.5 (head μg/ml; b127, b128 μM for single compound and gliclazide).
Setting [11] is: 5.0 (head μg/ml; b127, b128 μM for single compound and gliclazide).

“Also recorded” adds a separate entry of the source. Where only a bound is given, the exact number is not on record here.

For `O=C1CC2C(=C3c4c2ccc(O)c4[C@H](O)C[C@@H]3O)c2cccc(O)c21` (stereo partly shown) [Hypoxylonol-F], the “Cell viability (%)” value in the data set on INS-1 cells [1] (setting [6]) is on record as 96.2 ± 4.5%; in the data set on INS-1 cells [1] (setting [7]), 97.3 ± 4.6%; in the data set on INS-1 cells [1] (setting [8]), 96.1 ± 0.9%; with INS-1 cells [3] (5 µM) it was 70.1 ± 1.7%; in the data set with INS-1 cells [3] (10 µM) it was 68.3 ± 3.2%; with INS-1 cells [3] (25 µM) it was 70.0 ± 4.3%. For the same molecule, the “Cell viability (%)” value was determined as 69.8 ± 3.8% in the data set on INS-1 cells [3] (50 µM) and 71.6 ± 0.9% in the data set on INS-1 cells [3] (100 µM). In addition, in the data set with INS-1 cells [1], the “cytotoxicity / toxicity in words” value is “no cytotoxicity; also recorded: no toxicity”. The “Stimulation index (SI)” value in the data set with INS-1 cells [2] (setting [9]) was determined as 7.1 ± 0.4; in the data set with INS-1 cells [2] (setting [10]), 7.7 ± 0.3; in the data set on INS-1 cells [2] (setting [11]), 10.6 ± 0.3. Moreover, in the data set on INS-1 cells [2], the “insulin secretion of INS-1 cells in words” value (from here on “insulin secretion”) is “concentration-dependent manner”. For the same molecule, in the data set with INS-1 cells [3] (50 μM streptozotocin), the “cell viability reduced by streptozotocin, effect in words” value (from here on “cell viability reduced”) is listed as “significantly increased cell viability”.
Consider `Oc1cccc2c(-c3ccc(O)c4c(O)cccc34)ccc(O)c12` [BNT, 1,1′-binaphthalene-4,4′,5,5′-tetrol], for which the “Cell viability (%)” value with INS-1 cells [1] (setting [6]) came to 100.3 ± 3.6%; with INS-1 cells [1] (setting [7]) it was 100.1 ± 2.1%; in the data set with INS-1 cells [1] (setting [8]) it was 106.6 ± 2.9%; in the data set with INS-1 cells [3] (5 µM), 73.5 ± 3.0%; in the data set with INS-1 cells [3] (10 µM), 76.8 ± 4.5%; in the data set with INS-1 cells [3] (25 µM), 78.4 ± 1.5%. Besides, the “Cell viability (%)” value in the data set on INS-1 cells [3] (50 µM) was 81.5 ± 3.3%. The “cytotoxicity / toxicity in words” value in the data set with INS-1 cells [1] is given as “no cytotoxicity; also recorded: no toxicity”. For the same molecule, the “Stimulation index (SI)” value in the data set on INS-1 cells [2] (setting [9]) is on record as 6.7 ± 0.0; in the data set on INS-1 cells [2] (setting [10]) it was 7.4 ± 0.0; in the data set on INS-1 cells [2] (setting [11]) it was 6.8 ± 0.2. In addition, the “insulin secretion” value with INS-1 cells [2] is given as “concentration-dependent manner”. The “cell viability reduced” value in the data set with INS-1 cells [3] (50 μM streptozotocin) is “significantly increased cell viability”. Further, the “green fluorescent (apoptotic) cells, microscopic image FIG. 8A” value in the data set on INS-1 cells [4] was “apoptotic cells were decreased”. For the same molecule, in the data set on INS-1 cells [4], the “Apoptosis (%)” value amounted to 19.3 ± 0.5%. The “apoptosis by streptozotocin in words, FIG. 8B” value with INS-1 cells [4] is on record as “remarkably reduced apoptosis”.
For the molecule `Cc1ccc(S(=O)(=O)NC(=O)NN2CC3CCCC3C2)cc1` (stereo not shown) [gliclazide, reference compound], the “Stimulation index (SI)” value in the data set on INS-1 cells [2] (setting [10]) was 6.1 ± 0.0; in the data set on INS-1 cells [2] (setting [11]), 5.7 ± 0.0; with INS-1 cells [2] (10.0 (head μg/ml; b128 μM for gliclazide)), 6.1 ± 0.1; in the data set with INS-1 cells [2] (20.0 (head μg/ml; b128 μM for gliclazide)) it was 9.3 ± 0.0.
`CN(N=O)C(=O)N[C@H]1C(O)O[C@H](CO)[C@@H](O)[C@@H]1O` (mixture of isomers) [streptozotocin, reference compound]: in the data set with INS-1 cells [3] (50 μM streptozotocin, 24 hours), the “number of INS-1 cells as compared with non-treated group” value is on record as no more than 50%.
As for `O=C1CC2C(=C3c4c2ccc(O)c4[C@@H](O)C[C@@H]3O)c2cccc(O)c21` (stereo partly shown) [Hypoxylonol-C], the “Cell viability (%)” value is on record as 97.4 ± 1.7% in the data set on INS-1 cells [1] (setting [6]); 96.4 ± 1.4% in the data set on INS-1 cells [1] (setting [7]); 97.3 ± 3.0% in the data set on INS-1 cells [1] (setting [8]); 66.0 ± 0.9% in the data set on INS-1 cells [3] (5 µM); 75.6 ± 2.5% in the data set with INS-1 cells [3] (10 µM); 80.7 ± 1.5% in the data set on INS-1 cells [3] (25 µM). The “Cell viability (%)” value in the data set on INS-1 cells [3] (50 µM) came to 85.7 ± 1.7%. In addition, the “cytotoxicity / toxicity in words” value with INS-1 cells [1] is “no cytotoxicity; also recorded: no toxicity”. In addition, the “Stimulation index (SI)” value in the data set on INS-1 cells [2] (setting [9]) was found to be 6.3 ± 0.3; in the data set with INS-1 cells [2] (setting [10]), 5.3 ± 0.1; with INS-1 cells [2] (setting [11]) it was 6.1 ± 0.1. In the data set on INS-1 cells [2], the “insulin secretion” value is listed as “concentration-dependent manner”. Moreover, the “cell viability reduced” value in the data set on INS-1 cells [3] (50 μM streptozotocin) is given as “significantly increased cell viability”. In addition, the “green fluorescent (apoptotic) cells, microscopic image FIG. 8A” value with INS-1 cells [4] is recorded as “apoptotic cells were decreased”. The “Apoptosis (%)” value with INS-1 cells [4] came out at 21.6 ± 1.5%. For the same molecule, the “apoptosis by streptozotocin in words, FIG. 8B” value in the data set with INS-1 cells [4] was “remarkably reduced apoptosis”. Also, the antiangiogenic effect entry in data set [5] is given as “has an antiangiogenic effect”.
